What was measured:
[1] = test system: selectively-bred alcohol preferring rats; experiment: Alcohol Preferring Rats In Vivo Model (two-bottle choice); design: species or system rat; settings: for 6 hr Ethanol (alcohol intake) / 6 hr Preference (alcohol preference): 6 h after administration; for 6 hr Ethanol (alcohol intake) / 6 hr Preference (alcohol preference) / 24 hr Ethanol (alcohol intake) / 24 hr Preference (alcohol preference): mean ± SEM; for 24 hr Ethanol (alcohol intake) / 24 hr Preference (alcohol preference): 24 h after administration
Procedure: Adult male selectively-bred alcohol preferring rats (which are known in the art to be useful for the study of the effect of test compounds on vountary alcohol intake) were grouped into three groups: vehicle and Compound #8 (50 and 100 mg/kg, po). Rats were housed individually in wire mesh cages under a constant room temperature of 22±1° C. and 12:12 light-dark cycle (8:00-20:00, dark). The animals were fed Agway Prolab Rat/Mouse/ Hamster 3000 formula and water ad libitum.
Alcohol intake was determined using the standard two-bottle choice method. Animals were first given free access to water in a graduated Richter tube for 2 days. Then they were given access to only a solution of 10% (v/v) ethanol for 3 consecutive days. During this period animals became accustomed to drinking from Richter tubes and to the taste and pharmacological effects of alcohol. Thereafter, they were given free access to both water and a solution of 10% alcohol for at least 4 consecutive weeks and throughout the study period. Rats had free access to food. Water and alcohol intake were recorded at 4, 6 and 24 hours after the treatment, whereas food intake was measured at 24 hour. Animals' body weight was measured every day.
After establishment of a stable baseline for alcohol, food, and water intake, rats were administered either vehicle or Compound #8 via oral gavage using a cross-over design with random assignment. To be able to compare the efficacy of these compounds on alcohol intake with an established FDA-approved drug, naltrexone, was included as a positive control. Same rats were given an oral dose of naltrexone (20mg/kg). The interval between treatments was at least 3 days. Alcohol and water intake were recorded 4, 6 and 24 h after the drug administration and food intake was recorded at 24 hr. A total of 8-10 animals per group were used.
The results below are presented as means ±SEM. Alcohol intake (g/kg) was calculated by multiplying the volume of alcohol consumed in ml by 10% and 0.7893 (ethanol density)/body weight in kg. Alcohol preference, expressed as percentage, was calculated as follows: (volume of alcohol consumed in ml/total fluid intake in ml)×100 (Rezvani and Grady, 1994; Rezvani et al., 1997). Statistical differences between drug-treated and control groups were determined by using ANOVA and Turkey Student's t test for multiple comparison.

## NS(=O)(=O)NC[C@H]1COc2cc(Cl)c(Cl)cc2O1
other
  melting point: 119 to 121 °C

## O=C1CC[C@@]2(O)[C@H]3Cc4ccc(O)c5c4[C@@]2(CCN3CC2CC2)[C@H]1O5 [Naltrexone, naltrexone, reference compound]
[1]; 20 mg/kg oral
  6 hr Ethanol (alcohol intake): 0.77 ± 0.24 g/kg
  6 hr Preference (alcohol preference): 64 ± 12%
  24 hr Ethanol (alcohol intake): 4.48 ± 0.57 g/kg
  24 hr Preference (alcohol preference): 76 ± 9%

## NS(=O)(=O)NCC1CCc2ccccc2O1 (stereo not drawn)
other
  melting point: 100 to 101 °C

## NS(=O)(=O)NC[C@H]1COc2cc(Cl)ccc2O1 [Compound #8, (2S)-(−)-N-(6-Chloro-2,3-dihydro-benzo[1,4]dioxin-2-ylmethyl)-sulfamide]
[1]; 50 mg/kg po
  6 hr Ethanol (alcohol intake): 1.28 ± 0.25 g/kg
  6 hr Preference (alcohol preference): 67 ± 11%
  24 hr Ethanol (alcohol intake): 4.79 ± 0.5 g/kg
  24 hr Preference (alcohol preference): 77 ± 7%
[1]; 100 mg/kg po
  6 hr Ethanol (alcohol intake): 1.33 ± 0.17 g/kg
  6 hr Preference (alcohol preference): 75 ± 8%
  24 hr Ethanol (alcohol intake): 4.35 ± 0.66 g/kg
  24 hr Preference (alcohol preference): 70 ± 9%
[1]; alcohol-preferring rats, 6 h post-dosing, 50 and 100 mg/kg dose
  effect on ethanol consumption: decreased ethanol consumption

## CN(CC1COc2ccccc2O1)S(N)(=O)=O (racemic)
other
  melting point: 97 to 98 °C

## CN(C)S(=O)(=O)NCC1COc2ccccc2O1 (racemic)
other
  melting point: 76 to 78 °C

## NS(=O)(=O)NCCC1COc2ccccc2O1 (stereo not drawn)
other
  melting point: 101 to 103 °C

— patent publication US8691867B2, “Use of benzo-fused heterocycle sulfamide derivatives for the treatment of substance abuse and addiction” (Janssen Pharmaceutica NV, priority 2005, dated 2014)
